This is an account of results in US8207342B2, “Substituted 3-amino-2-mercaptoquinolines as KCNQ2/3 modulators” (Gruenenthal GmbH, priority 2009, dated 2012).

pEC50: −log10 of the molar value.

One assay deals with T1, KCNQ2/3 channels (Homo sapiens, UniProt O43525+O43526).
T1 construct: expressed in transfected cells
The experiment in a line: Fluorescence assay using a voltage sensitive dye (fluorimetry). It is filed as cell-based. The settings on record: CHO-K1 cells expressing KCNQ2/3 channels; for pEC50: agonistic activity; for Emax: relative to retigabine = 100%, read-out: Fluorimetry % efficacy (retigabine = 100%). Here is the method:
Fluorescence Assay using a Voltage Sensitive Dye
Human CHO—K1 cells expressing KCNQ2/3 channels are cultivated adherently at 37° C., 5% CO2 and 95% humidity in cell culture bottles (e.g. 80 cm^2 TC flasks, Nunc) with DMEM-high glucose (Sigma Aldrich, D7777) including 10% FCS (PAN Biotech, e.g. 3302-P270521) or alternatively MEM Alpha Medium (1×, liquid, Invitrogen, #22571), 10% fetal calf serum (FCS) (Invitrogen, #10270-106, heat-inactivated) and the necessary selection antibiotics.
Before being sown out for the measurements, the cells are washed with a 1×DPBS buffer without Ca^2+/Mg^2+ (e.g. Invitrogen, #14190-094) and detached from the bottom of the culture vessel by means of Accutase (PAA Laboratories, #L11-007) (incubation with Accutase for 15 min at 37° C.). The cell count then present is determined using a CASY™ cell counter (TCC model, Schärfe System) in order subsequently to apply, depending on the density optimization for the individual cell line, 20,000-30,000 cells/well/100 μl of the described nutrient medium to 96-well measuring plates of the Corning™ CellBIND™ type (Flat Clear Bottom Black Polystyrene Microplates, #3340). Incubation is then carried out for one hour at room temperature, without gassing or adjusting the humidity, followed by incubation for 24 hours at 37° C., 5% CO2 and 95% humidity.
The voltage-sensitive fluorescent dye from the Membrane Potential Assay Kit (Red™ Bulk format part R8123 for FLIPR, MDS Analytical Technologies™) is prepared by dissolving the contents of a vessel Membrane Potential Assay Kit Red Component A in 200 ml of extracellular buffer (ES buffer, 120 mM NaCl, 1 mM KCl, 10 mM HEPES, 2 mM CaCl2, 2 mM MgCl2, 10 mM glucose; pH 7.4). After removal of the nutrient medium, the cells are washed with 200 μl of ES buffer, then covered with a layer of 100 μl of the dye solution prepared above and incubated for 45 min at room temperature with the exclusion of light.
The fluorescence measurements are carried out with a BMG Labtech FLUOstar™, BMG Labtech NOVOstar™ or BMG Labtech POLARstar™ instrument (525 nm excitation, 560 nm emission, Bottom Read mode). After incubation of the dye, 50 μl of the test substances in the desired concentrations, or 50 μl of ES buffer for control purposes, are introduced into separate cavities of the measuring plate and incubated for 30 min at room temperature while being shielded from light. The fluorescence intensity of the dye is then measured for 5 min and the fluorescence value F1 of each well is thus determined at a given, constant time. 15 μl of a […] KCl solution ([…]) are then added to each well. The change in fluorescence is subsequently measured until all the relevant measured values have been obtained (mainly 5-30 min). At a given time after KCl application, a fluorescence value F2 is determined, in this case at the time of the fluorescence peak.
For calculation, the fluorescence intensity F2 is compared with the fluorescence intensity F1, and the agonistic activity of the target compound on the potassium channel is determined therefrom. F2 and F1 are calculated as follows: […]
In order to determine whether a substance has agonistic activity,
A substance has an agonistic activity on the potassium channel when
[formula] it is possible to conclude that a target compound has agonistic activity if an increase in
Calculations of EC50 values are carried out with the aid of ‘Prism v4.0’ software (GraphPad Software™).

Assay [1] has as its system formalin-induced pain behaviour. The experiment in a line: Formalin test, mouse (phase 2, chronic pain component). The settings on record: change in percent compared with vehicle control. Type of assay: in vivo. Here is the method:
Formalin Test, Mouse The formalin test (Dubuisson, D. and Dennis, S. G., 1977, Pain, 4, 161-174) represents a model for both acute and chronic pain. By means of a single formalin injection into the dorsal side of a rear paw, a biphasic nociceptive reaction is induced in freely mobile test animals; the reaction is detected by observing three behaviour patterns which are clearly distinguishable from one another. The reaction is two-phase: phase 1=immediate reaction (duration up to 10 min; shaking of the paw, licking), phase 2=late reaction (after a rest phase; likewise shaking of the paw, licking; duration up to 60 min). The 1st phase reflects a direct stimulation of the peripheral nocisensors with high spinal nociceptive input (acute pain phase); the 2nd phase reflects a spinal and peripheral hypersensitization (chronic pain phase). In the studies described here, the chronic pain component (phase 2) has been evaluated. Formalin in a volume of 20 μl and a concentration of 1% is administered subcutaneously into the dorsal side of the right rear paw of each animal. The specific changes in behaviour, such as lifting, shaking or licking of the paw (score 3, Dubuisson & Dennis, 1977), are observed and recorded in the observation period of 21 to 24 minutes following the formalin injection. The behaviour of the animals after administration of the substance (n=10 per dose of substance) was compared with a control group which received vehicle (n=10). On the basis of the quantification of the pain behaviour, the action of the substance in the formalin test was determined as the change in percent compared with the control. The ED50 calculations (ED50=mean effective dose) were carried out by means of regression analysis according to the method of Litchfield and Wilcoxon (Litchfield, J. T., Wilcoxon, J. J., 1949, J. Pharmacol. Exp. Ther. 96, 99—113). The time of administration of the compound before the formalin injection was chosen as 5 min in the case of intravenous administration and 30 min in the case of oral administration.

Broadly, the pEC50 is the negative decadic logarithm of the EC50, by convention in mol/L. With `O=C(CC1CCCCC1)Nc1cc2ccccc2nc1SCCS(=O)(=O)c1ccccc1` [Example 1, 2-cyclohexyl-N-(2-(2-(phenylsulfonyl)ethylthio)quinolin-3-yl)acetamide], at KCNQ2/3 channels, the pEC50 is 6.60 and the Emax stood at 80%.
`O=C(Cc1cccs1)Nc1cc2ccccc2nc1SCCS(=O)(=O)c1ccccc1` [Example 2, N-(2-(2-(phenylsulfonyl)ethylthio)quinolin-3-yl)-2-(thiophen-2-yl)acetamide]: at KCNQ2/3 channels, the pEC50 is 7.17 and the Emax is 80%.
Regarding `O=C(CCC1CCCCC1)Nc1cc2ccccc2nc1SCCS(=O)(=O)c1ccccc1` [Example 3, 3-Cyclohexyl-N-(2-(2-(phenylsulfonyl)ethylthio)quinolin-3-yl)propanamide], on KCNQ2/3 channels, the pEC50 is 6.76 and the Emax turned out to be 97%.
On the same counts, the results for `CCCCCSc1nc2ccccc2cc1NC(=O)Cc1cccs1` [Example 4, N-(2-(pentylthio)quinolin-3-yl)-2-(thiophen-2-yl)acetamide] are 6.97 and 60%.
For the compound `O=C(Cc1cccs1)Nc1cc2ccccc2nc1SCCSc1ccccc1` [Example 6, N-(2-(2-(phenylthio)ethylthio)quinolin-3-yl)-2-(thiophen-2-yl)acetamide], the Emax at KCNQ2/3 channels came to 25%.
`CCSc1nc2ccccc2cc1NC(=O)Cc1cccs1` [Example 7, N-(2-(ethylthio)quinolin-3-yl)-2-(thiophen-2-yl)acetamide]: the “Formalin Test mouse IV effect @ dose [mg/kg]” value in assay [1] (1 mg/kg) was found to be 24% @ 1. Further, at KCNQ2/3 channels, the pEC50 was 6.81 and the Emax is 93%.
Consider `CCSc1nc2ccccc2cc1NC(=O)CC(C)(C)C` [Example 9, N-(2-(ethylthio)quinolin-3-yl)-3,3-dimethylbutanamide], for which, on KCNQ2/3 channels, the pEC50 is 6.38 and the Emax came to 142%.
Regarding `CCSc1nc2cc(C(F)(F)F)ccc2cc1NC(=O)Cc1cccs1` [Example 10, N-[2-Ethylsulfanyl-7-(trifluoromethyl)quinolin-3-yl]-2-thiophen-2-yl-acetamide], on KCNQ2/3 channels, the pEC50 was 5.94 and the Emax stood at 57%.
As to `CCSc1nc2cc(C(F)(F)F)ccc2cc1NC(=O)CC(C)(C)C` [Example 11, N-[2-ethylsulfanyl-7-(trifluoromethyl)-quinolin-3-yl]-3,3-dimethyl-butyramide], on KCNQ2/3 channels, the Emax is 35%.
In the case of `CCSc1nc2cc(C(F)(F)F)ccc2cc1NC(=O)CCC1CCCC1` [Example 12, 3-cyclopentyl-N-[2-ethylsulfanyl-7-(trifluoromethyl)-quinolin-3-yl]propionamide], at KCNQ2/3 channels, the negative-log EC50 (pEC50) is 5.30 and the Emax was 62%.
Take `CCSc1nc2ccccc2cc1NC(=O)CC1CCCCC1` [Example 13, 2-Cyclohexyl-N-(2-ethylsulfanyl-quinolin-3-yl)-acetamide]: at KCNQ2/3 channels, the pEC50 is 6.82 and the Emax amounted to 101%.
On the same counts, the results for `CCSc1nc2ccccc2cc1NC(=O)CC1CC2CCC1C2` (stereo not shown) [Example 14, 2-(5-bicyclo[2.2.1]heptanyl)-N-(2-ethylsulfanyl-quinolin-3-yl)-acetamide] are 6.69 and 179%.
As for `CCSc1nc2ccccc2cc1NC(=O)CCC1CCCC1` [Example 15, 3-cyclopentyl-N-(2-ethylsulfanyl-quinolin-3-yl)-propionamide], the “Formalin Test mouse IV effect @ dose [mg/kg]” value in assay [1] (1 mg/kg) is 17% @ 1. In addition, on KCNQ2/3 channels, the pEC50 was 7.09 and the Emax came out at 143%.
In the case of `CCSc1nc2cc(C(F)(F)F)ccc2cc1NC(=O)CC1CC2CCC1C2` (stereo not shown) [Example 16, 2-(5-bicyclo[2.2.1]heptanyl)-N-[2-ethylsulfanyl-7-(trifluoromethyl)-quinolin-3-yl]-acetamide], on KCNQ2/3 channels, the pEC50 is 6.19 and the Emax stood at 66%.
With `CCSc1nc2cc(C(F)(F)F)ccc2c(C)c1NC(=O)CCC1CCCC1` [Example 17, 3-cyclopentyl-N-[2-ethylsulfanyl-4-methyl-7-(trifluoromethyl)-quinolin-3-yl]-propionamide], the “Formalin Test mouse IV effect @ dose [mg/kg]” value in assay [1] (0.68 mg/kg) amounted to 90% @ 0.68. For the same compound, at KCNQ2/3 channels, the pEC50 was 7.18 and the Emax amounted to 107%.
On to `CCSc1nc2cc(C(F)(F)F)ccc2c(C)c1NC(=O)Cc1cccs1` [Example 18, N-[2-ethylsulfanyl-4-methyl-7-(trifluoromethyl)-quinolin-3-yl]-2-thiophen-2-yl-acetamide], for which the “Formalin Test mouse IV effect @ dose [mg/kg]” value in assay [1] (1 mg/kg) stood at 43% @ 1. Besides, on KCNQ2/3 channels, the pEC50 is 7.03 and the Emax came to 140%.
